Values quoted from earlier work as cited in patent publication US4122157A, “Nitrofurantoin sustained release tablet” (Richardson-Merrell Inc., priority 1977, dated 1978).

Settings: background statement

For `O=C1CN(N=Cc2ccc([N+](=O)[O-])o2)C(=O)N1` [Nitrofurantoin, 1-[(5-nitrofurfurylidene)amino]hydantoin], the tolerability in humans is given as “remarkably well tolerated in humans” and the “most frequent adverse reactions” value (humans) is given as “anorexia, nausea and emesis”.
